# Patent publication US10787452B2 (Vertex Pharmaceuticals Incorporated, priority 2012, dated 2020)
# Test system: HCT116 colorectal cancer cells
# Test: Cisplatin sensitization assay (96 h cell viability MTS);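 note: compound concentration needed to lower the Cisplatin-alone IC50 by a set fold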
# Type: cell-based
# Details: 96 h MTS, compound plus Cisplatin
# Procedure, shortened: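 Viability is measured with MTS reagent, added after 96 h and developed for 1 h at 37° C. Beforehand, cells receive compound and cisplatin simultaneously in a concentration matrix of 2-fold serial dilutions starting at 10 μM final.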
row,Compound,Cisplatin Sensitization Assay
1,"CNC1CN(C(=O)C2CCN(c3c(F)cncc3NC(=O)c3c(N)nn4cc(F)cnc34)CC2)C1 [I-G-34, 2-amino-6-fluoro-N-(5-fluoro-4-(4-(3-(methylamino)azetidine-1-carbonyl)piperidin-1-yl)pyridin-3-yl)pyrazolo[1,5-a]pyrimidine-3-carboxamide]",+++ (Compounds with a Cisplatin sensitization value of <0.02 μM are marked with “+++.”)
2,"Nc1nn2cc(F)cnc2c1C(=O)Nc1cnccc1N1CCN(S(=O)(=O)C2COC2)CC1 [I-N-195, 2-amino-6-fluoro-N-(4-(4-(oxetan-3-ylsulfonyl)piperazin-1-yl)pyridin-3-yl)pyrazolo[1,5-a]pyrimidine-3-carboxamide]",+++ (Compounds with a Cisplatin sensitization value of <0.02 μM are marked with “+++.”)
3,"Nc1nn2cc(Cl)cnc2c1C(=O)Nc1cnccc1-n1ccnc1 [I-N-29, N-(4-(1H-imidazol-1-yl)pyridin-3-yl)-2-amino-6-chloropyrazolo[1,5-a]pyrimidine-3-carboxamide]",++ (Compounds with a Cisplatin sensitization value >0.02 μM but <0.2 μM are marked with “++.”)
4,"Nc1nn2cc(F)cnc2c1C(=O)Nc1cncc(F)c1N1CC(=O)N2CCCC2C1 (centres unmarked) [I-N-232, 2-amino-6-fluoro-N-(5-fluoro-4-(4-oxohexahydropyrrolo[1,2-a]pyrazin-2(1H)-yl)pyridin-3-yl)pyrazolo[1,5-a]pyrimidine-3-carboxamide]",++ (Compounds with a Cisplatin sensitization value >0.02 μM but <0.2 μM are marked with “++.”)
5,"Nc1nn2cc(Cl)cnc2c1C(=O)Nc1cnccc1N1CCN(CC(F)(F)F)CC1 [I-N-67, 2-amino-6-chloro-N-(4-(4-(2,2,2-trifluoroethyl)piperazin-1-yl)pyridin-3-yl)pyrazolo[1,5-a]pyrimidine-3-carboxamide]",+++ (Compounds with a Cisplatin sensitization value of <0.02 μM are marked with “+++.”)
6,"Cn1cncc1-c1ccncc1NC(=O)c1c(N)nn2cc(F)cnc12 [I-C-56, 2-amino-6-fluoro-N-(4-(1-methyl-1H-imidazol-5-yl)pyridin-3-yl)pyrazolo[1,5-a]pyrimidine-3-carboxamide]",+++ (Compounds with a Cisplatin sensitization value of <0.02 μM are marked with “+++.”)
7,"Nc1nn2cc(Cl)cnc2c1C(=O)Nc1cnccc1N1CCC(N)CC1 [I-N-86, 2-amino-N-(4-(4-aminopiperidin-1-yl)pyridin-3-yl)-6-chloropyrazolo[1,5-a]pyrimidine-3-carboxamide]",+++ (Compounds with a Cisplatin sensitization value of <0.02 μM are marked with “+++.”)
8,"Cc1nccnc1-c1ccncc1NC(=O)c1c(N)nn2cc(F)cnc12 [I-C-62, 2-amino-6-fluoro-N-(4-(3-methylpyrazin-2-yl)pyridin-3-yl)pyrazolo[1,5-a]pyrimidine-3-carboxamide]",++ (Compounds with a Cisplatin sensitization value >0.02 μM but <0.2 μM are marked with “++.”)
9,"CNCCc1cnn(-c2ccncc2NC(=O)c2c(N)nn3cc(F)cnc23)c1 [I-N-8, 2-amino-6-fluoro-N-(4-(4-(2-(methylamino)ethyl)-1H-pyrazol-1-yl)pyridin-3-yl)pyrazolo[1,5-a]pyrimidine-3-carboxamide]",+ (Compounds with a Cisplatin sensitization value >0.2 μM but <5 μM are marked with “+.”)
10,"N#CCc1cnc2c(C(=O)Nc3cnccc3O[C@H]3CCNC3)c(N)nn2c1 [I-O-86, (S)-2-amino-6-(cyanomethyl)-N-(4-(pyrrolidin-3-yloxy)pyridin-3-yl)pyrazolo[1,5-a]pyrimidine-3-carboxamide]",++ (Compounds with a Cisplatin sensitization value >0.02 μM but <0.2 μM are marked with “++.”)
11,"CC(=O)N1CCN(c2c(F)cncc2NC(=O)c2c(N)nn3cc(F)cnc23)CC1 [I-N-275, N-(4-(4-acetylpiperazin-1-yl)-5-fluoropyridin-3-yl)-2-amino-6-fluoropyrazolo[1,5-a]pyrimidine-3-carboxamide]",+++ (Compounds with a Cisplatin sensitization value of <0.02 μM are marked with “+++.”)
